# Laboratory results taken from patent US6130058A, “Human NMDA R2A receptor subunit and isoforms of the human NMDA-R1 receptor subunit and encoding cDNAs” (Merck Sharpe & Dohme Ltd., priority 1992, dated 2000).
# Experiments:
# [1] = tested on: untransfected Ltk- cells; experiment: Radioligand binding to untransfected Ltk- cells (control); design: species or system mouse
# Procedure: (§1) The nature of the recombinant R1a NMDA receptors prepared as described in Example 3 was addressed by characterization of the glycine site binding pharmacology, using the glycine site antagonist [^3 H]-L-689,560. For radioligand binding assays, cells which had been induced by culture in dexamethasone containing medium for 3-5 days were scraped off into 5 mM Tris-Acetate, pH 7.0 at 4° C. (buffer 1) and pelleted (20,000 rpm, Sorvall RC5C centrifuge). The cell pellet was resuspended in buffer 1, homogenised using an Ultra-Turrax homogeniser and then pelleted as above. This was repeated once more, and the cells then resuspended in 50 mM Tris-Acetate, pH 7.0 at 4° C. (buffer 2) at a protein concentration of 1 mg/ml. […] After 2 hours incubation on ice the membranes were harvested onto filters using a Brandel cell harvester, washed with cold buffer 2, and bound radioactivity determined by scintillation counting. Non-specific binding was determined in a parallel incubation containing 10 mM glycine. […]
# (§2) For radioligand binding assays, cells which had been induced by culture in dexamethasone, MgCl2 and D-AP5 containing medium for 3-5 days were scraped off into 5 mM Tris-Acetate, pH 7.0 at 4° C. […] After 2 hours at 25° C. in the presence of 30 μM glycine and 30 μM L-glutamate the membranes were washed with buffer 1 and bound radioactivity determined by scintillation counting. […]
# [2] = biological target: recombinant R1a+R2A NMDA receptors (Homo sapiens, UniProt Q05586+Q12879); experiment: [3H]-dizocilpine radioligand binding to membranes of R1a+R2A transfected Ltk- cells (population B); conditions: 2 nM radioligand, 100 μg protein, 2 hours at 25° C., 30 μM glycine and 30 μM L-glutamate
# Procedure: Ltk^- cells were obtained from the Salk Institute for Biological Studies, San Diego, Calif. Cells were grown at 37° C., 5-8% CO2, in Modified Eagles Medium containing penicillin, streptomycin and 10% fetal calf serum. […] For co-transfection, Ltk^- cells were plated in dishes (approx. 2×10^5 cells/dish) and grown overnight. The transfection was performed by calcium phosphate precipitation using a kit (purchased from 5 Prime→3 Prime Products, Westchester, Pa.). Co-transfection was performed according to manufacturers' instructions, using 5 μg of each subunit DNA construct per 10 cm dish of cells. After 2 days in culture the cells were divided 1:8 into culture medium containing 1 mg/ml neomycin [Geneticin (obtainable from Gibco BRL, Paisley, Scotland, United Kingdom)]. […] Subclones were analysed using radioligand binding: subclones were grown in 10 cm culture dishes, and when confluent changed into culture medium containing 1 μM dexamethasone (obtainable from Sigma Chemical Company, Poole, Dorset, United Kingdom). […]
# For radioligand binding assays, cells which had been induced by culture in dexamethasone, MgCl2 and D-AP5 containing medium for 3-5 days were scraped off into 5 mM Tris-Acetate, pH 7.0 at 4° C. […] Non-specific binding was determined in a parallel incubation containing 100 μM dizocilpine.
# [3] = biological target: recombinant R1a+R2A NMDA receptor expressed by population B cells (Homo sapiens, UniProt Q05586+Q12879); experiment: Whole cell patch clamp electrophysiology on population B cells; format: cell-based
# Text: The nature of the NMDA receptor expressed by population B cells has been extensively characterised by electrophysiological techniques, using whole cell patch clamp.
# [4] = biological target: T1, recombinant R1a+R2A receptors (Homo sapiens, UniProt Q05586); experiment: [3H]-L-689,560 radioligand binding to membranes of R1a+R2A transfected Ltk- cells (population B)
# T1 construct: expressed in transfected cells
# Procedure: as §1, §2
# [5] = biological target: T2, recombinant R1a NMDA receptors (Homo sapiens, UniProt Q05586); experiment: [3H]-L-689,560 radioligand binding to membranes of R1a transfected Ltk- cells (population A); conditions: 1 nM radioligand, 100 μg protein, 2 hours on ice, dexamethasone-induced cells
# T2 construct: expressed in transfected cells
# Procedure: Ltk^- cells were obtained from the Salk Institute for Biological Studies, San Diego, Calif. Cells were grown at 37° C., 5-8% CO2, in Modified Eagles Medium containing penicillin, streptomycin and 10% fetal calf serum. […] For co-transfection, Ltk^- cells were plated in dishes (approx. 2×10^5 cells/dish) and grown overnight. The transfection was performed by calcium phosphate precipitation using a kit (purchased from 5 Prime→3 Prime Products, Westchester, Pa.). Co-transfection was performed according to manufacturers' instructions, using 5 μg of each subunit DNA construct per 10 cm dish of cells. After 2 days in culture the cells were divided 1:8 into culture medium containing 1 mg/ml neomycin [Geneticin (obtainable from Gibco BRL, Paisley, Scotland, United Kingdom)]. After a further week the concentration was increased to 1.5 mg/ml, and then 2 mg/ml 1 week after that. Resistant clones of cells were isolated and subcloned using cloning cylinders. Subclones were analysed using radioligand binding: subclones were grown in 10 cm culture dishes, and when confluent changed into culture medium containing 1 μM dexamethasone (obtainable from Sigma Chemical Company, Poole, Dorset, United Kingdom). […] Rev. Pharmacol. […] Non-specific binding was determined in a parallel incubation containing 10 mM glycine. […]
smiles,measurement,setting,value
"C[C@]12N[C@H](Cc3ccccc31)c1ccccc12 [[^3 H]-dizocilpine, dizocilpine]",binding to untransfected Ltk- cells,"[1]; [3H]-dizocilpine binding conditions, 2 nM",No binding
same,level of [3H]-dizocilpine bound,[2],up to 200 fmols/mg protein
"O=C(O)[C@H]1C[C@@H](CP(=O)(O)O)CCN1 (relative stereo) [CGS 19,755]",antagonism of the response to glutamate and glycine,[3],antagonised
"O=C(Nc1ccccc1)N[C@@H]1C[C@@H](C(=O)O)Nc2cc(Cl)cc(Cl)c21 (relative stereo) [[^3 H]-L-689,560]","level of [3H]-L-689,560 bound",[4],up to 500 fmols/mg protein
same,binding to untransfected Ltk- cells,"[1]; [3H]-L-689,560 binding conditions, 1 nM",No binding
same,"level of [3H]-L-689,560 bound",[5],up to 3700 fmols/mg protein
